Test results reported in patent publication US20250032525A1 (priority 2021, published 2025).
Like-named read-outs stand apart in the source and are kept apart here.

Experiments:
[1] = system: HS 578T; details: NCI-60 database, sulforhodamine B, read-out: Cytotoxic IC50; cited from earlier work
[2] = system: SK-MEL-2; details: SK-MEL-2, NCI-60 database, sulforhodamine B; read-out: Cytotoxic IC50; cited from earlier work
[3] = system: Brcal^−/−;p53^−/− tumors; details: cited from earlier work
[4] = system: MDA-MB-231; details: MDA-MB-231, NCI-60 database, sulforhodamine B; read-out: Cytotoxic IC50; cited from earlier work
[5] = system: HCT-15; details: HCT-15, NCI-60 database, sulforhodamine B; read-out: Cytotoxic IC50; cited from earlier work
[6] = system: MDA-MB-435; details: MDA-MB-435, NCI-60 database, sulforhodamine B; read-out: Cytotoxic IC50; cited from earlier work
[7] = system: A431; assay: In vitro cytotoxicity; assay type: cell-based; details: Homo sapiens, A-431
Description: (§1) Experiments were repeated at least 3 times.

[8] = system: A431-G2; assay: In vitro cytotoxicity; assay type: cell-based
Description: as §1

[9] = system: A431-B1; assay: In vitro cytotoxicity; assay type: cell-based
Description: as §1

[10] = system: MDA-MB-468; assay: In vitro cytotoxicity; assay type: cell-based; details: Homo sapiens; MDA-MB-468 breast cancer cell line
Description: as §1

[11] = system: P388; assay: In vitro cytotoxicity; assay type: cell-based; details: Mus musculus
Description: as §1

[12] = system: P388/ADR; assay: In vitro cytotoxicity; assay type: cell-based; details: Mus musculus
Description: as §1

[13] = system: KM12; details: KM12, NCI-60 database, sulforhodamine B; read-out: Cytotoxic IC50; cited from earlier work
[14] = system: A498; details: A498, NCI-60 database, sulforhodamine B; read-out: Cytotoxic IC50; cited from earlier work
[15] = system: HCT-116; details: HCT-116, NCI-60 database, sulforhodamine B; read-out: Cytotoxic IC50; cited from earlier work
[16] = system: CAKI-1; details: CAKI-1, NCI-60 database, sulforhodamine B; read-out: Cytotoxic IC50; cited from earlier work
[17] = system: HT29; assay: In vitro cytotoxicity (PrestoBlue); assay type: cell-based, human; details: HT29, 72 h, read-out: Cytotoxic IC50
Description: as §1

[18] = system: HCT-15; assay: In vitro cytotoxicity (PrestoBlue); assay type: cell-based, human; details: HCT-15, 72 h, read-out: Cytotoxic IC50
Description: as §1

[19] = Storage stability of PyDau; assay type: physicochemical; details: monomer form, −20° C.
Description: 2-pyrrolinodoxorubicin (PyDox) TFA salt was developed in 1996 (Nagy A. et al.; Proc. Natl. Acad. Sci. U.S.A. 93 (1996). 2464-2469). In the first step Nagy et al. applied 4-iodobutyraldehyde, that was prepared from 2-(3-chloropropyl)-1,3-dioxolane followed by Shiff-base formation and cyclization. The synthesis of 4-iodobutyraldehyde—which is the key step for efficient synthesis-was later improved by Studenovsky et al. (Eur. J. Pharm. Sci. 42 (2011). 156-163). […] Therefore, a new approach was investigated for the preparation of PyDau. First, the stable and storable 4-bromobutyraldehyde was applied for the synthesis. The reaction was carried out in DCM in the presence of excess DIPEA under nitrogen atmosphere at room temperature (RT) for 10 h.

[20] = In vivo toxicity (dose-finding) studies; design: species or system FVB mice; details: for Mortality (%) / Survival: single iv
Description: PyDau and LiPyDau dose-finding studies were done using 10 weeks old FVB mice, by single intravenous injections of different doses of the compounds (3 mouse/dose) via the tail vein. The status of the mice was monitored daily for signs of pain or discomfort. Mice were euthanized at 20% body weight loss or at a low score (1 or 2) on the Body Condition Scoring scale. Survival was followed for 30 days and the Maximum Tolerable Dose (MTD) was defined as the highest dose where 100% survival was observed.

[21] = system: MCF7; assay: In vitro cytotoxicity (PrestoBlue); details: Homo sapiens, MCF7, 72 h, read-out: Cytotoxic IC50
Description: Cells were seeded in 40 μl medium on 384 well plates by an automatic liquid handling machine (Hamilton StarLet) in a density of 2500 cells/well. Adherent cells were cultured for 24 h before the addition of the compounds, while drugs were added to non-adherent cells 2 h after cell seeding. The drugs were serially diluted, and dispensed in an additional 20 μl. Cells were incubated for an additional 72 h, cytotoxicity was assessed by the PrestoBlue viability reagent (Thermo Fisher). Experiments were repeated at least 3 times.

[22] = system: panel of cell lines of various tissue of origin; assay: In vitro cytotoxicity, panel of cell lines (PrestoBlue); assay type: cell-based, human; details: for IC50: Homo sapiens
Description: as §1

[23] = system: MCF-7 human breast adenocarcinoma cells; details: reported by Mező; cited from earlier work

For `COc1cccc2c1C(=O)c1c(O)c3c(c(O)c1C2=O)C[C@@](O)(C(=O)CO)C[C@@H]3O[C@H]1C[C@H](N)[C@H](O)[C@H](C)O1` [DOX, doxorubicin], which IC50 [1] is on record?
The IC50 was 188 nM.

And the IC50 [2]?
Its IC50 is 237 nM.

What about the “Outcome of treatment at MTD” value ([3]; DOX 5 mg/kg, PLD 8 mg/kg, FIG. 10 from Füredi et al.) of the same molecule?
Its value is “all tumors developed resistance”.

And the “Maximum tolerable dose (MTD)” value ([3]; iv., FVB mice with Brcal^−/−;p53^−/− tumors)?
Its value is 5 mg/kg.

What about the IC50 [4] of the same molecule?
The IC50 was 383 nM.

And the IC50 [5]?
Its IC50 is 1200 nM.

What about the IC50 [6] of the same molecule?
The IC50 was 258 nM.

And the IC50 [7]?
Its IC50 is 65 nM.

And the IC50 [8]?
Its IC50 is 170 nM.

What about the IC50 [9] of the same molecule?
The IC50 was 2450 nM.

And the IC50 [10]?
The IC50 was 20 nM.

What about the IC50 [11] of the same molecule?
Its IC50 is 150 nM.

And the IC50 ([12]; read-out: IC50)?
The IC50 was 2040 nM.

And the IC50 ([12]; read-out: IC50 + TQ, heading: IC50 + TQ, presence of 1 μM tariquidar)?
Its IC50 is 690 nM.

What about the IC50 [13] of the same molecule?
Its IC50 is 223 nM.

What about the IC50 [14] of the same molecule?
The IC50 was 85.5 nM.

What about the IC50 [15] of the same molecule?
The IC50 was 66.1 nM.

And the IC50 [16]?
The IC50 was 190 nM.

Which IC50 [17] does the source give for `COc1cccc2c1C(=O)c1c(O)c3c(c(O)c1C2=O)C[C@@](O)(C(C)=O)C[C@@H]3O[C@H]1C[C@H]2[C@H](OC3CCCN32)[C@H](C)O1` (some centres unmarked) [PyDau, 2-deamino-2-pyrrolino-daunorubicin] here?
Its IC50 is 3.53 nM.

What about the IC50 ([17]; Homo sapiens, HT-29, 72 h) of the same molecule?
Its IC50 is 3.05 nM.

And the IC50 [18]?
Its IC50 is 2.42 nM.

And the IC50 ([18]; Homo sapiens)?
The IC50 was 2.86 nM.

And the Stability on storage [19]?
Its Stability on storage is “stable for long time”.

And the Lethality ([20]; 3, 2, 1 and 0.5 mg/kg)?
Its Lethality is “lethal”.

And the “Mortality (%)” value ([20]; PyDau dose 0.05 mg/kg)?
The value was 0%.

What about the “Survival” value ([20]; PyDau dose 0.05 mg/kg) of the same molecule?
Its value is >30 days.

What about the “Mortality (%)” value ([20]; PyDau dose 0.1 mg/kg) of the same molecule?
The value was 0%.

What about the “Survival” value ([20]; PyDau dose 0.1 mg/kg) of the same molecule?
The value was >30 days.

What about the “Mortality (%)” value ([20]; PyDau dose 0.17 mg/kg) of the same molecule?
Its value is 0%.

And the “Survival” value ([20]; PyDau dose 0.17 mg/kg)?
Its value is >30 days.

What about the “Mortality (%)” value ([20]; PyDau dose 0.25 mg/kg) of the same molecule?
The value was 0%.

And the “Survival” value ([20]; PyDau dose 0.25 mg/kg)?
The value was >30 days.

And the “Mortality (%)” value ([20]; PyDau dose 0.5 mg/kg)?
The value was 100%.

And the “Survival” value ([20]; PyDau dose 0.5 mg/kg)?
The value was 11 days.

What about the “Mortality (%)” value ([20]; PyDau dose 1 mg/kg) of the same molecule?
Its value is 100%.

What about the “Survival” value ([20]; PyDau dose 1 mg/kg) of the same molecule?
Its value is 4 days.

What about the “Mortality (%)” value ([20]; PyDau dose 2 mg/kg) of the same molecule?
The value was 100%.

What about the “Survival” value ([20]; PyDau dose 2 mg/kg) of the same molecule?
The value was 2 days.

And the “Mortality (%)” value ([20]; PyDau dose 3 mg/kg)?
Its value is 100%.

And the “Survival” value ([20]; PyDau dose 3 mg/kg)?
Its value is 2 days.

And the Safety window ([20]; dose-finding studies in mice)?
Its Safety window is “too narrow”.

What about the MTD at 30 days ([20]; mouse, in vivo, single intravenous injection, FVB mice, highest dose with 100% survival over 30 days, read-out: Maximum Tolerable Dose (MTD)) of the same molecule?
Its MTD at 30 days is 0.25 mg/kg.

And the IC50 [21]?
The IC50 was 5.73 nM.

What about the IC50 ([22]; average IC50 within the breast group, read-out: Cytotoxic IC50, av. breast) of the same molecule?
The IC50 was 3.23 nM.

What about the IC50 ([22]; average IC50 within the colorectal group, read-out: Cytotoxic IC50, av. colorectal) of the same molecule?
Its IC50 is 3.39 nM.

And the IC50 ([22]; average IC50 within the leukaemia group, read-out: Cytotoxic IC50, av. leukaemia)?
Its IC50 is 0.57 nM.

What about the IC50 ([22]; average IC50 within the lung group, read-out: Cytotoxic IC50, av. lung) of the same molecule?
Its IC50 is 4.21 nM.

What about the IC50 ([22]; average IC50 within the melanoma group, read-out: Cytotoxic IC50, av. melanoma) of the same molecule?
Its IC50 is 4.08 nM.

What about the IC50 ([22]; average IC50 within the ovarian group, read-out: Cytotoxic IC50, av. ovarian) of the same molecule?
Its IC50 is 1.43 nM.

And the IC50 ([22]; average IC50 within the pancreatic group, read-out: Cytotoxic IC50, av. pancreatic)?
The IC50 was 3.23 nM.

What about the IC50 ([22]; average IC50 within the prostate group, read-out: Cytotoxic IC50, av. prostatic) of the same molecule?
The IC50 was 1.93 nM.

What about the IC50 ([22]; average IC50 within the renal group, read-out: Cytotoxic IC50, av. renal) of the same molecule?
Its IC50 is 5.2 nM.

And the IC50 ([22]; panel of cell lines, FIG. 1, read-out: IC50 values ranging across every cell line of the panel)?
The IC50 was 0.23 to 14.3 nM.

And the IC50 ([22]; panel of cell lines, typical range, read-out: IC50 values, typically)?
Its IC50 is 1 to 10 nM.

And the “Effectiveness against multidrug resistant cells” value ([22]; Pgp expressing multidrug resistant HCT-15 and NCI/ADR-RES cells)?
Its value is “effective”.

And the IC50 [23]?
The IC50 was 0.2 nM.
